Results published in US20090137572A1, “2-substituted-4-heteroaryl-pyrimidines useful for the treatment of proliferative disorders” (priority 2004, published 2009).

Legend:
Format in all cases: biochemical
SAPK3/p38g = SAPK3/p38g (Homo sapiens, UniProt P53778); assay: Kinase selectivity profile, SAPK3/p38g; details: 5 μM test compound, compared to control; ATP 5 μM
Method: (§1) The kinase selectivity profiles of selected example compounds were determined, essentially as described (Bain, J.; McLauchlan, H.; Elliott, M.; Cohen, P. Biochemical Journal, 2003, 371, 199.); the results are shown in Tables 3 & 4. For the assays shown in Table 3, the kinases were assayed at the following ATP concentrations: SAPK4, PKBΔph, GSK3b, SAPK3, CK2, MKK1, PIM2, IKKB, ERK8, and PRK2 at 5 μM; JNK, PRAK, ROCK-II, SAPK2b, CDK2, CHK1, MSK1, CSK, P70S6K, PKA, CK1, MAPKAP-K2, SGK, PKCa, PDK1, NEK 7, and MAPKAP-K3 at 20 μM; SAPK2a, LCK, AMPK, MAPK2, DYRK1a, MAPKAP-K1a, NEK-6, NEK2a, PBK, CAMK-1, SRPK-1, JNK3, MNK2, RSK2, MNK1, PKBB, and SmMLCK at 50 μM. For the assays in Table 4 the ATP concentration was 100 μM throughout.

SAPK2b/p38β2 = SAPK2b/p38β2 (Homo sapiens, UniProt Q15759); assay: Kinase selectivity profile, SAPK2b/p38β2; details: 5 μM test compound, compared to control; ATP 20 μM
Method: as §1

GSK3b = GSK3b (Homo sapiens, UniProt P49841); assay: Kinase selectivity profile, GSK3b; details: 5 μM test compound, compared to control; ATP 5 μM
Method: as §1

IKKb = IKKb (Homo sapiens, UniProt O14920); assay: Kinase selectivity profile, IKKb; details: 5 μM test compound, compared to control; ATP 5 μM
Method: as §1

CK2 = assay: Kinase selectivity profile, CK2; details: 5 μM test compound, compared to control; ATP 5 μM
Method: as §1

NEK6 = NEK6 (Homo sapiens, UniProt Q9HC98); assay: Kinase selectivity profile, NEK6; details: 5 μM test compound, compared to control; ATP 50 μM
Method: as §1

MAPKAP-K1a = MAPKAP-K1a (Homo sapiens, UniProt Q15418); assay: Kinase selectivity profile, MAPKAP-K1a; details: 5 μM test compound, compared to control; ATP 50 μM
Method: as §1

MAPKAP-K3 = MAPKAP-K3 (Homo sapiens, UniProt Q16644); assay: Kinase selectivity profile, MAPKAP-K3; details: 5 μM test compound, compared to control; ATP 20 μM
Method: as §1

PKA = PKA (Homo sapiens, UniProt P17612); assay: Kinase selectivity profile, PKA; details: 5 μM test compound, compared to control; ATP 20 μM
Method: as §1

p70 S6K = p70 S6K (Homo sapiens, UniProt P23443); assay: Kinase selectivity profile, p70 S6K; details: 5 μM test compound, compared to control; ATP 20 μM
Method: as §1

SAPK4/p38d = SAPK4/p38d (Homo sapiens, UniProt O15264); assay: Kinase selectivity profile, SAPK4/p38d; details: 5 μM test compound, compared to control; ATP 5 μM
Method: as §1

CHK1 = CHK1 (Homo sapiens, UniProt O14757); assay: Kinase selectivity profile, CHK1; details: 5 μM test compound, compared to control; ATP 20 μM
Method: as §1

PIM2 = PIM2 (Homo sapiens, UniProt Q9P1W9); assay: Kinase selectivity profile, PIM2; details: 5 μM test compound, compared to control; ATP 5 μM
Method: as §1

PKCa = PKCa (Homo sapiens, UniProt P17252); assay: Kinase selectivity profile, PKCa; details: 5 μM test compound, compared to control; ATP 20 μM
Method: as §1

PHK = assay: Kinase selectivity profile, PHK; details: 5 μM test compound, compared to control
Method: as §1

MNK2 = MNK2 (Homo sapiens, UniProt Q9HBH9); assay: Kinase selectivity profile, MNK2; details: 5 μM test compound, compared to control; ATP 50 μM
Method: as §1

PKBb = PKBb (Homo sapiens, UniProt P31751); assay: Kinase selectivity profile, PKBb; details: 5 μM test compound, compared to control; ATP 50 μM
Method: as §1

PDK1 = PDK1 (Homo sapiens, UniProt O15530); assay: Kinase selectivity profile, PDK1; details: 5 μM test compound, compared to control; ATP 20 μM
Method: as §1

CK1 = assay: Kinase selectivity profile, CK1; details: 5 μM test compound, compared to control; ATP 20 μM
Method: as §1

ROCK-II = ROCK-II (Homo sapiens, UniProt O75116); assay: Kinase selectivity profile, ROCK-II; details: 5 μM test compound, compared to control; ATP 20 μM
Method: as §1

PRK2 = PRK2 (Homo sapiens, UniProt Q16513); assay: Kinase selectivity profile, PRK2; details: 5 μM test compound, compared to control; ATP 5 μM
Method: as §1

MAPK2/ERK2 = MAPK2/ERK2 (Homo sapiens, UniProt P28482); assay: Kinase selectivity profile, MAPK2/ERK2; details: 5 μM test compound, compared to control; ATP 50 μM
Method: as §1

Lck = Lck (Homo sapiens, UniProt P06239); assay: Kinase selectivity profile, Lck; details: 5 μM test compound, compared to control; ATP 50 μM
Method: as §1

ERK8 = ERK8 (Homo sapiens, UniProt Q8TD08); assay: Kinase selectivity profile, ERK8; details: 5 μM test compound, compared to control; ATP 5 μM
Method: as §1

smMLCK = smMLCK (Homo sapiens, UniProt Q15746); assay: Kinase selectivity profile, smMLCK; details: 5 μM test compound, compared to control; ATP 50 μM
Method: as §1

MNK1 = MNK1 (Homo sapiens, UniProt Q9BUB5); assay: Kinase selectivity profile, MNK1; details: 5 μM test compound, compared to control; ATP 50 μM
Method: as §1

JNK/SAPK1c = JNK/SAPK1c (Homo sapiens, UniProt P45983); assay: Kinase selectivity profile, JNK/SAPK1c; details: 5 μM test compound, compared to control; ATP 20 μM
Method: as §1

SGK = SGK (Homo sapiens, UniProt O00141); assay: Kinase selectivity profile, SGK; details: 5 μM test compound, compared to control; ATP 20 μM
Method: as §1

PKB = assay: Kinase selectivity profile, PKB; details: 5 μM test compound, compared to control; ATP 5 μM (PKBΔph)
Method: as §1

JNK3 = JNK3 (Homo sapiens, UniProt P53779); assay: Kinase selectivity profile, JNK3; details: 5 μM test compound, compared to control; ATP 50 μM
Method: as §1

MAPKAP-K2 = MAPKAP-K2 (Homo sapiens, UniProt P49137); assay: Kinase selectivity profile, MAPKAP-K2; details: 5 μM test compound, compared to control; ATP 20 μM
Method: as §1

CDK2-cyclin A = CDK2-cyclin A (Homo sapiens, UniProt P24941); assay: Kinase selectivity profile, CDK2/cyclin A; details: 5 μM test compound, compared to control; ATP 20 μM
Method: as §1

JNK/SAPK1c, sequence (P45983 whole entry): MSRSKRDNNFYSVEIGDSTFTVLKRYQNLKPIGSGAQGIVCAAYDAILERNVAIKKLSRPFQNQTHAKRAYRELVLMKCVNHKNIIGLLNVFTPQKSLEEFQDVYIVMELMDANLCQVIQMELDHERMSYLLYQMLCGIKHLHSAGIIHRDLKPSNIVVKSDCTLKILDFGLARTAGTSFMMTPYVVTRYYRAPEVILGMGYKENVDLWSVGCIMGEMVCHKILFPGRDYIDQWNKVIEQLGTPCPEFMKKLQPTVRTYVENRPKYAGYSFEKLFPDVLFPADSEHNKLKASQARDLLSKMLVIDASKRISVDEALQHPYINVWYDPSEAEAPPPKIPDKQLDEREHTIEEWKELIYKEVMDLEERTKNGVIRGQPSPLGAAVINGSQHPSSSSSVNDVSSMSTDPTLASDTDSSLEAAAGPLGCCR
PDK1, sequence (O15530 whole entry): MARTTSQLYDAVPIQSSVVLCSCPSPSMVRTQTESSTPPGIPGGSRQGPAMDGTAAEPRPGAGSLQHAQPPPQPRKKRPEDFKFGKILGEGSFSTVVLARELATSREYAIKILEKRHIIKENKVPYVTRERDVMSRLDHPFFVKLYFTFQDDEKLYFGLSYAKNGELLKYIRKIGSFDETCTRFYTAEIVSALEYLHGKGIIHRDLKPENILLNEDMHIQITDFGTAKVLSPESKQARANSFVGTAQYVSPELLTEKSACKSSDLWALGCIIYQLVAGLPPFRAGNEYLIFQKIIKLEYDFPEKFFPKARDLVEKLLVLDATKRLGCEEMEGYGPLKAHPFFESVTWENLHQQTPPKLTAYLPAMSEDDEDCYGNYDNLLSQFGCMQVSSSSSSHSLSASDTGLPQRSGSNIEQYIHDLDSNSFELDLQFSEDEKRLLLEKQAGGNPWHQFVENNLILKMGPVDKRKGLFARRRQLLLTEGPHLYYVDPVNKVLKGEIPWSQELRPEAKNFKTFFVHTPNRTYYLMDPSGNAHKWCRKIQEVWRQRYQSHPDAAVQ
MNK1, sequence (Q9BUB5 whole entry, species assumed): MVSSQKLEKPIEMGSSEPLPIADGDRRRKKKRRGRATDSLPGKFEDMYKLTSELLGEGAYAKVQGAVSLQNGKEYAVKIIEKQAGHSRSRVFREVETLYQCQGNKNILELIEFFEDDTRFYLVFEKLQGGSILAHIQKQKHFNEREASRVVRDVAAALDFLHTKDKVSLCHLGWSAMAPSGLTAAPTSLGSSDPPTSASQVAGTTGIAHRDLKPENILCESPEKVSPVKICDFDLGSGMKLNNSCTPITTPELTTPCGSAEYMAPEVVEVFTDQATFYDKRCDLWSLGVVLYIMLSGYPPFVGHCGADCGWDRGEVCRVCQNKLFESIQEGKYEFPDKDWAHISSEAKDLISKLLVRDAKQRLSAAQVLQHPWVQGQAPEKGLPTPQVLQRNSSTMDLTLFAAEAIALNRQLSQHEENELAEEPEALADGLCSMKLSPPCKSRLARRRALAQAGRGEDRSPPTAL
ERK8, sequence (Q8TD08 whole entry, species assumed): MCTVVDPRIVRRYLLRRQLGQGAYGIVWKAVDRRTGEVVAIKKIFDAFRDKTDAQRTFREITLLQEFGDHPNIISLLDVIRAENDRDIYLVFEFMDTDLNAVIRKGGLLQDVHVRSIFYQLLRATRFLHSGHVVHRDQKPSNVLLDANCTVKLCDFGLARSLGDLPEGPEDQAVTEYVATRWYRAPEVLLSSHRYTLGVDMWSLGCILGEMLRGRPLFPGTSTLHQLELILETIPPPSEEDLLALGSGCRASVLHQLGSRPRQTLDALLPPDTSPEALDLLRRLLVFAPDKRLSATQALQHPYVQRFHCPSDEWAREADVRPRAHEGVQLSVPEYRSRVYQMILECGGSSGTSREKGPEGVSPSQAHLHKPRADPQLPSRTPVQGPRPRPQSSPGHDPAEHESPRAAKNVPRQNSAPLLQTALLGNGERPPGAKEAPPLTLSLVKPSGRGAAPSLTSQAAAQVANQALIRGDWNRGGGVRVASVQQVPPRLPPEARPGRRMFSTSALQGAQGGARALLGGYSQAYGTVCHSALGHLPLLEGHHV
GSK3b, sequence (P49841 whole entry, species assumed): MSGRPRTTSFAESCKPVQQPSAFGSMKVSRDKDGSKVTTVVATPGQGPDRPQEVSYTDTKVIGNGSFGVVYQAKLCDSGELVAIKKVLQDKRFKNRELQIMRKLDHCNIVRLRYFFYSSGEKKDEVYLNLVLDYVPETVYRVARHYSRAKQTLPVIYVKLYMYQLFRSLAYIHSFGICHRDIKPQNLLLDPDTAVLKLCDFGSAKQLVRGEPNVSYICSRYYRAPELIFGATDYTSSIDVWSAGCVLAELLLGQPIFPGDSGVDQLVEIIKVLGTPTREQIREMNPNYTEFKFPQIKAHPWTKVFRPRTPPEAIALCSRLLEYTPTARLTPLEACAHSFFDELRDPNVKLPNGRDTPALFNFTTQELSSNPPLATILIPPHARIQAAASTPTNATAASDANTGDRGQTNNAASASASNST
IKKb, sequence (O14920 whole entry, species assumed): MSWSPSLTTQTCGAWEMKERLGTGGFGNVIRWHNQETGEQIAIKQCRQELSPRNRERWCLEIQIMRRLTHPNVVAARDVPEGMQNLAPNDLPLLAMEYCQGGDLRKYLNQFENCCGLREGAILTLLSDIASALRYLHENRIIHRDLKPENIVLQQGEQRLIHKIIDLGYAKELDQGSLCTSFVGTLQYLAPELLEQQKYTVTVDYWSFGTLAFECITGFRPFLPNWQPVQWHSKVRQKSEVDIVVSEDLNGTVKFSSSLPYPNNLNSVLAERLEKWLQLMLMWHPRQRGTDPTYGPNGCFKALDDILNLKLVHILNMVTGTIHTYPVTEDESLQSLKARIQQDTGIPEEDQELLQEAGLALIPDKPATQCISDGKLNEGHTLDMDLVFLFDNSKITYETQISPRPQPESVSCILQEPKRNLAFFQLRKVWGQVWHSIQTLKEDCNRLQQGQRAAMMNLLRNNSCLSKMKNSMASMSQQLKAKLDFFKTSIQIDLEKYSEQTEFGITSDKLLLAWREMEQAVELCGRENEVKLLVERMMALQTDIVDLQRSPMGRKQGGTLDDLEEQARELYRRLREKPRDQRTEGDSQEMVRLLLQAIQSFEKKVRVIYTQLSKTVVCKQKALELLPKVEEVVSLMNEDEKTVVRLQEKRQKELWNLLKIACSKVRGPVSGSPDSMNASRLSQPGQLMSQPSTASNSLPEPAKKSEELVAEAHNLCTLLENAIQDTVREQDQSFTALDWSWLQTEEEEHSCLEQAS
PRK2, sequence (Q16513 whole entry, species assumed): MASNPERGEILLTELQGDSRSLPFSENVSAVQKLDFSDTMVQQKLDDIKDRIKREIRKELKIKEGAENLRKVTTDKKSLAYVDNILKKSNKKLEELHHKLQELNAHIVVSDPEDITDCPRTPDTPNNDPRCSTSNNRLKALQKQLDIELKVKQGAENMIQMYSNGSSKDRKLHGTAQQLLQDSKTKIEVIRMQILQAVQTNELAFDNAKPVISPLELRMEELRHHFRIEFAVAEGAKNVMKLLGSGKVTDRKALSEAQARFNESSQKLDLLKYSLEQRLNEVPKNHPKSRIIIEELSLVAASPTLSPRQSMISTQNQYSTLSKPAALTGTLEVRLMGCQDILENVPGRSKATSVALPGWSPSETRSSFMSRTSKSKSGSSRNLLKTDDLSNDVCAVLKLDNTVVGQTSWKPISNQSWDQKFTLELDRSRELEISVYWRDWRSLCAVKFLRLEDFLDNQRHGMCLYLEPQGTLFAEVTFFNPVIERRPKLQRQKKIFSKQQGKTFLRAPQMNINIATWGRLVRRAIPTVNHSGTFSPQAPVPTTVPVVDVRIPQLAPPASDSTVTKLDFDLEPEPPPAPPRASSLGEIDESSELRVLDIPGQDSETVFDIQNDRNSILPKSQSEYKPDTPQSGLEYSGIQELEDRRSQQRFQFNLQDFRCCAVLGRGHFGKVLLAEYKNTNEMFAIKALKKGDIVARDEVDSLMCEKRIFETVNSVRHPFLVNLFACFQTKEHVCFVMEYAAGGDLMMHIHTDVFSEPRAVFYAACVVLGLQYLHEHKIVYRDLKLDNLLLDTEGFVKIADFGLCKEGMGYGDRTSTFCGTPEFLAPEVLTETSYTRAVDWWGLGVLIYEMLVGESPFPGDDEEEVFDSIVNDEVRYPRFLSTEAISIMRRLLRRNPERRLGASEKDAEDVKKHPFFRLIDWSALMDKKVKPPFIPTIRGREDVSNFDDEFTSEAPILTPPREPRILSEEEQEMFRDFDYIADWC
Lck, sequence (P06239 whole entry, species assumed): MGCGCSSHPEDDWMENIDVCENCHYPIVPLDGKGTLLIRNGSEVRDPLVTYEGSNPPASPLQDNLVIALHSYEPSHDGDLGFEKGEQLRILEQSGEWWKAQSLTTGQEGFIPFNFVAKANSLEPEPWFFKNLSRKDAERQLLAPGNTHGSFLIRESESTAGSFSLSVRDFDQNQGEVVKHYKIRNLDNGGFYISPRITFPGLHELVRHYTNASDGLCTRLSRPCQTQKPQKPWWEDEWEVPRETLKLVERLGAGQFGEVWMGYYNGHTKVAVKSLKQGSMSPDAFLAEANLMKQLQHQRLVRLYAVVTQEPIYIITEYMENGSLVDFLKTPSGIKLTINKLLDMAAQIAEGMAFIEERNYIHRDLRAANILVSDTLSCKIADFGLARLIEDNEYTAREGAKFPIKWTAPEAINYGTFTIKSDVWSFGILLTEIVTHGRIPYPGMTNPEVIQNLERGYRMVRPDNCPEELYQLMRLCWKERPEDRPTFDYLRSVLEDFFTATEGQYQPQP
PIM2, sequence (Q9P1W9 whole entry, species assumed): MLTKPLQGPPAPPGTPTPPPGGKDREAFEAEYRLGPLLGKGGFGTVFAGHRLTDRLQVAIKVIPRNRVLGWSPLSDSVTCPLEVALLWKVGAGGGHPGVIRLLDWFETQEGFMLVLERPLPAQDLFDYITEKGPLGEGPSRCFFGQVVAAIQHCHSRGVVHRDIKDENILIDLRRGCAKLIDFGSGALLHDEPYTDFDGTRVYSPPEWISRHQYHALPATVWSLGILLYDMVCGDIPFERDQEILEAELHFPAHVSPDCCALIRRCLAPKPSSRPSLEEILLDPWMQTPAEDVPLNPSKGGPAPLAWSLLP

Cc1nc(CS(=O)(=O)c2cccs2)sc1-c1ccnc(Nc2ccc(N3CCOCC3)cc2)n1 [Compound 138, {4-[4-Methyl-2-(thiophene-2-sulfonylmethyl)-thiazol-5-yl]-pyrimidin-2-yl}-(4-morpholin-4-yl-phenyl)-amine]
remaining activity at 5 µM (SAPK3/p38g): 74%
remaining activity at 5 µM (SAPK2b/p38β2): 42%
remaining activity at 5 µM (GSK3b): 21%
remaining activity at 5 µM (IKKb): 34%
Remaining activity (%) CK2 (CK2): 5%
remaining activity at 5 µM (NEK6): 80%
remaining activity at 5 µM (MAPKAP-K1a): 34%
remaining activity at 5 µM (MAPKAP-K3): 104%
remaining activity at 5 µM (PKA): 29%
remaining activity at 5 µM (p70 S6K): 41%
remaining activity at 5 µM (SAPK4/p38d): 85%
remaining activity at 5 µM (CHK1): 55%
remaining activity at 5 µM (PIM2): 93%
remaining activity at 5 µM (PKCa): 41%
Remaining activity (%) PHK (PHK): 15%
remaining activity at 5 µM (MNK2): 27%
remaining activity at 5 µM (PKBb): 92%
remaining activity at 5 µM (PDK1): 55%
Remaining activity (%) CK1 (CK1): 27%
remaining activity at 5 µM (ROCK-II): 14%
remaining activity at 5 µM (PRK2): 78%
remaining activity at 5 µM (MAPK2/ERK2): 39%
remaining activity at 5 µM (Lck): 7%
remaining activity at 5 µM (ERK8): 11%
remaining activity at 5 µM (smMLCK): 44%
remaining activity at 5 µM (MNK1): 18%
remaining activity at 5 µM (JNK/SAPK1c): 10%
remaining activity at 5 µM (SGK): 5%
Remaining activity (%) PKB (PKB): 91%
remaining activity at 5 µM (JNK3): 15%
remaining activity at 5 µM (MAPKAP-K2): 84%
remaining activity at 5 µM (CDK2-cyclin A): 9%

CCNc1nc(C)c(-c2ccnc(Nc3ccc(N4CCNCC4)cc3)n2)s1 [Compound 59, [4-(2-Ethylamino-4-methyl-thiazol-5-yl)-pyrimidin-2-yl]-(4-piperazin-1-yl-phenyl)-amine]
remaining activity at 5 µM (SAPK3/p38g): 69%
remaining activity at 5 µM (SAPK2b/p38β2): 36%
remaining activity at 5 µM (GSK3b): 37%
remaining activity at 5 µM (IKKb): 7%
Remaining activity (%) CK2 (CK2): 2%
remaining activity at 5 µM (NEK6): 47%
remaining activity at 5 µM (MAPKAP-K1a): 14%
remaining activity at 5 µM (MAPKAP-K3): 87%
remaining activity at 5 µM (PKA): 22%
remaining activity at 5 µM (p70 S6K): 13%
remaining activity at 5 µM (SAPK4/p38d): 66%
remaining activity at 5 µM (CHK1): 10%
remaining activity at 5 µM (PIM2): 80%
remaining activity at 5 µM (PKCa): 33%
Remaining activity (%) PHK (PHK): 3%
remaining activity at 5 µM (MNK2): 20%
remaining activity at 5 µM (PKBb): 75%
remaining activity at 5 µM (PDK1): 20%
Remaining activity (%) CK1 (CK1): 3%
remaining activity at 5 µM (ROCK-II): 5%
remaining activity at 5 µM (PRK2): 8%
remaining activity at 5 µM (MAPK2/ERK2): 59%
remaining activity at 5 µM (Lck): 1%
remaining activity at 5 µM (ERK8): 4%
remaining activity at 5 µM (smMLCK): 10%
remaining activity at 5 µM (MNK1): 3%
remaining activity at 5 µM (JNK/SAPK1c): 2%
remaining activity at 5 µM (SGK): 0%
Remaining activity (%) PKB (PKB): 82%
remaining activity at 5 µM (JNK3): 13%
remaining activity at 5 µM (MAPKAP-K2): 84%
remaining activity at 5 µM (CDK2-cyclin A): 1%
